Here are results for one compound from patent publication US20230130103A1, “TARGETED PHARMACOLOGICAL THERAPEUTICS IN UVEAL MELANOMA” (Washington University, priority 2017, published 2023).

Test [1] deals with Gαi/q. The test can be described thus: In vitro nucleotide exchange (BODIPY-GTPγS fluorescence). To be noted: FIG. 2B. Format: biochemical.
Test [2] deals with T1, Gαi/q (Homo sapiens, UniProt P63096, K54R/C351G, form not given).
T1 construct: other: via Gαi/q; the eight substituted residues copy Gαq (GNAQ) but are point changes, not a fused part of Gαq
Format: cell-based. To be noted: read-out: IC50, attenuation of cannabinoid type 1 receptor inhibition of forskolin-induced cAMP accumulation; via Gαi/q; Neuro2A cells, PTX-treated; FIG. 2C.

Test [3] relates to Mel202 cells. Nature of the test: Melanocytic re-differentiation (morphology, pigmentation, immunostaining). It is filed as cell-based, Human. As to the method:
(§1) FIG. 5A Morphological changes elicited by FR. UM cell lines were treated 3 d with FR and imaged by phase contrast microscopy. FR caused UM cells driven by constitutively active Gαq (92.1 and Mel202) to lose their characteristic spindle shaped and assume a stellate shape with multiple projections. FR had no effect on BRAF-driven UM cells (OCM-1A). FIG. 5B Melanocytic differentiation of FR-treated UM cells indicated by pigmentation. UM cell lines were treated 3 d with FR. Cells were pelleted and examined macroscopically. […] Scale bar=50 μm.
(§2) Cell fixation was carried out by adding an equal volume of 2×fixative (PBS with 4% paraformaldehyde and 0.4% glutaraldehyde) to UM cells in RPMI growth medium. After 15 min at 37° C., cells were permeabilized with 0.1% Triton X-100 in PBS for 5 min, washed with PBS, and blocked with 2% fish gelatin (Sigma-Aldrich) in PBS. Primary and secondary antibodies were diluted in 2% fish gelatin in PBS. Primary antibodies included mouse monoclonal anti-pre-melanosomal protein (One World Lab, San Diego, Calif.), rabbit polyclonal anti-tyrosinase (One World Lab), rabbit polyclonal anti-dopachrome tautomerase (One World Lab), rabbit polyclonal anti-S100 (DakoCytomation, Denmark), and mouse monoclonal anti-BrdU (Life Technologies). Secondary antibodies were Alexa-fluor conjugates (Life Technologies), and the mounting agent was ProLong Gold (Life Technologies). Cell morphology was assessed by phase contrast imaging with an inverted microscope (Olympus IX72) using a 10×objective.

Test [4] relates to OCM-1A cells. Described as above. It is filed as cell-based, Human. The conditions noted are these: 3 d FR, FIG. 5A. As to the method:
as §1, §2

Test [5] relates to 92.1 UM cells. The test can be described thus: qPCR validation of FR target genes. It is filed as cell-based, Human. The conditions noted are these: 92.1 cells; FIG. 10. As to the method:
(§3) The results for six genes showing significant changes in expression in response to FR by RNA-Seq were validated by qPCR.
(§4) 92.1 UM cells were treated with 100 nM FR or vehicle (DMSO) in RPMI growth medium and collected after 1 and 3 d of treatment. RNA was isolated using the RNeasy Mini Kit (Qiagen) following the manufacturer's protocol and including the optional DNase I treatment step. RNA quality was assessed on a Bioanalyzer 2100 (Agilent Technologies, Santa Clara, Calif., USA). mRNA was extracted from total RNA using a Dynal mRNA Direct kit, fragmented and reverse transcribed to double stranded cDNA with random primers before addition of adapters for library preparation. Library preparation and HiSeq2500 sequencing were performed by the Washington University Genome Technology Access Center (gtac.wustl.edu). FastQ files were aligned to the transcriptome and the whole-genome with STAR. Biologic replicates were simultaneously analyzed by edgeR and Sailfish analyses of gene-level/exon-level features. Unexpressed genes and exons were removed from the analyses. Unsupervised principal component analysis and volcano plots were generated in Bioconductor using edgeR. Significance Analysis of Microarrays (SAM), Version 4.0 was used to generate a ranked gene list, and a threshold of q<10% and fold-change >2.0 was then used to select the most highly significant genes that were down regulated in FR-treated versus vehicle control cells. This list was used as signature gene sets for Gene Ontology (GO) analysis and Gene Set Enrichment Analysis (GSEA) (45). […] Significant gene sets from GSEA analyses were combined such that genes associated with multiple related signatures were only counted once and each gene was assigned only to a single combined groupbased on the signature with the highest enrichment score for that gene. Significant gene expression changes were validated in all three UM cell lines by qPCR using fast SYBR Green Mastermix (Fisher Scientific) following the manufacturers' protocol. GAPDH was used as an endogenous control.

In test [6] the test system is OCM-1A UM cells. The test can be described thus: qPCR validation of FR target genes. Format: cell-based, Human. To be noted: OCM-1A cells; FIG. 10. The method, then: as §3, §4
Test [7] relates to Mel202 cells. The test can be described thus: qPCR validation of FR target genes. It is filed as cell-based, Human. The conditions noted are these: FR-treated Mel202 cells; FIG. 10. The method, then: More important, 42% of genes in this cluster are known targets of the polycomb repressive complex 2 (PRC2) during differentiation from embryonic stem cells (FIG. 7D and Table 5), as indicated by gene set enrichment analysis.
92.1 UM cells were treated with 100 nM FR or vehicle (DMSO) in RPMI growth medium and collected after 1 and 3 d of treatment. RNA was isolated using the RNeasy Mini Kit (Qiagen) following the manufacturer's protocol and including the optional DNase I treatment step. RNA quality was assessed on a Bioanalyzer 2100 (Agilent Technologies, Santa Clara, Calif., USA). mRNA was extracted from total RNA using a Dynal mRNA Direct kit, fragmented and reverse transcribed to double stranded cDNA with random primers before addition of adapters for library preparation. Library preparation and HiSeq2500 sequencing were performed by the Washington University Genome Technology Access Center (gtac.wustl.edu). FastQ files were aligned to the transcriptome and the whole-genome with STAR. Biologic replicates were simultaneously analyzed by edgeR and Sailfish analyses of gene-level/exon-level features. […] Significant gene sets from GSEA analyses were combined such that genes associated with multiple related signatures were only counted once and each gene was assigned only to a single combined groupbased on the signature with the highest enrichment score for that gene. […]

Entries after “also recorded” stand apart in the source; their conditions may differ. Starred links: 1 amine or outer side, 2 acyl side, 3 side chain; linkers in the order of their positions; H or OH if unused. Positions of bridges follow the written chain, without caps; N, C: chain ends. Non-standard residues stand in square brackets, D forms with d. Residues, ends and D or L forms follow the SMILES beside them. *: point of attachment. Leu(3R-OH,Nα-propionyl) = CCC(=O)N[C@H](C(=O)*)[C@H](O)C(C)C; X1 = CC(C)[C@@H](O[*:3])[C@H](N[*:1])C(=O)[*:2]; X2 = CC(C)[C@H](O[*:3])[C@@H](N[*:1])C(=O)[*:2]; NMeaThr = CN[C@H](C(=O)O)[C@H](C)O; dPhLac = O=C(O)[C@H](O)Cc1ccccc1; NMeA = CN[C@@H](C)C(=O)O; NMeDha = C=C(NC)C(=O)O

T1 sequence (P63096 whole entry V50I/K54R/Y69F/V72L/K180P/V185I/T187Y/H188P/C351G, form open, the tested form may be a part): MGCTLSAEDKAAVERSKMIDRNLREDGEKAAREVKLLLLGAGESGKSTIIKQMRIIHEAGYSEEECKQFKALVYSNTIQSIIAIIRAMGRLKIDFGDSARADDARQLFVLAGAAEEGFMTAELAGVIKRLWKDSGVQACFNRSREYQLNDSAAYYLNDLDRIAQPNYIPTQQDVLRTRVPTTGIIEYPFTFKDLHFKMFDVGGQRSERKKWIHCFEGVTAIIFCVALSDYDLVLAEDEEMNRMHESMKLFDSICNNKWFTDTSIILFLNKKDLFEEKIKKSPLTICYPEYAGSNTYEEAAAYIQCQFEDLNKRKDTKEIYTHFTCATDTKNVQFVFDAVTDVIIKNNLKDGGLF

In the case of `C=C1C(=O)N[C@@H](C)C(=O)N(C)[C@@H](C)C(=O)N[C@H]([C@@H](OC(=O)[C@@H](NC(=O)CC)[C@H](O)C(C)C)C(C)C)C(=O)N(C)[C@@H]([C@H](C)OC)C(=O)O[C@H](C(C)C)[C@H](NC(C)=O)C(=O)O[C@H](Cc2ccccc2)C(=O)N1C` [FR, [(1S)-1-[(3S,6R,9S,12S,18R,21S,22R)-21-acetamido-18-benzyl-3-[(1S)-1-methoxyethyl]-4,9,10,12,16-pentamethyl-15-methylidene-2,5,8,11,14,17,20-heptaoxo-22-propan-2-yl-1,19-dioxa-4,7,10,13,16-pentazacyclodocos-6-yl]-2-methylpropyl] (2S,3R)-3-hydroxy-4-methyl-2-(propanoylamino)pentanoate] (Ac-[X1][dPhLac][NMeDha]A[NMeA][X2](Leu(3R-OH,Nα-propionyl))[NMeaThr](Me); ester 1-C), in test [1], the “in vitro nucleotide exchange” value is “inhibited”. Besides, the 50% inhibitory concentration (IC50) in test [2] worked out at 0.025 µM. Further, the “cell morphology (phase contrast)” value in test [3] (3 d FR, FIG. 5A) is “morphological changes indicative of re-differentiation”; in test [4], “no effect”. Further, the melanocytic pigmentation result in test [3] (3 d FR, FIG. 5B) was “strikingly increased”. Moreover, in test [3] (FIG. 5C), the “expression levels of TYR, DCT and PMEL (immunofluorescence)” value is “increased”. The “expression of PMP22 and DCT (qPCR)” value is “significantly upregulated” in test [5] and “no effect” in test [6]. The “expression of PRC2 targets ADRA2A, HAND2, SCARF2 and WT1 (qPCR)” value in test [5] was “significant down-regulation”; in test [6] it was “unaffected; also recorded: no effect”. In addition, the “RNA-Seq downregulation results checked by quantitative RT-PCR” value in test [7] was “confirmed”.
